{"source": "patent US20020032182A1", "about": "“Method of treating hypersomnia sleep disturbance or insomnia sleep disturbance that is secondary to another condition” (priority 1997, published 2002)", "key": {"[1]": {"test_system": "depression in the form of dysthymia", "assay": "Patient No. 1 weekly blinded component study with Beck Scale and SCL-90 Scale self-rating", "type": "in vivo, human", "details": "for patient-reported symptoms during week: component taken along with sertraline 125 mg qd", "method": "Patient No. 1 was a person who, after a series of psychoanalysis/psychotherapy sessions, was diagnosed as suffering from depression in the form of dysthymia. Patient No. 1 experienced a chronic low mood with markedly diminished interest and pleasure in all activities including work, eating, and sexual relations.\nInitially, Patient No. 1 was treated only with the known antidepressant sertraline (sold under the registered trademark ZOLOFT®). Sertraline is a selective serotonin reuptake inhibitor. Sertraline was administered in amounts from 50 to 150 mg qd (per day); the ideal dose for this patient was ultimately determined to be 125 mg qd (per day).\nIndependent of the sertraline treatments, the patient began taking a vitamin and mineral supplement that included a series of components. […] As such improvement was unexpected, a study of the components of the mineral preparation was undertaken. During this study, Patient No. 1 stopped taking the composite preparation.\nIn this study, Patient No. 1 took one component of the preparation at a time according to a schedule of one pill a day for five days, Monday through Friday. At the end of each week, they filled out two self-rating scales that are used in the diagnosis and monitoring of depression. These scales are the Beck Scale and the SCL-90 Scale, both of which are well known in the field of psychiatry and psychotherapy. Patient No. 1 continued to take sertraline at 125 mg per day. During the study, Patient No. 1 was not informed of what they were taking.\nThe series of events described in the above example are more fully set forth in the graphs in FIGS. 1 and 2. FIG. 1 is a bar graph displaying the scores on the Beck Scale, a self-rating scale for depression, at the end of each weekly treatment.\nFIG. 2 is a bar graph of the total score on the SCL-90 Scale. The SCL-90 is composed of 90 questions. It is designed to measure symptoms of somatization, obsessive-compulsive behavior, interpersonal sensitivity, depression, anxiety, hostility, phobic anxiety, paranoid ideation, and psychoticism. It is noted that the grand total of scores on each Friday closely parallels the results of the Beck Scale."}, "[2]": {"test_system": "pre-menstrual syndrome (PMS) and major depression", "assay": "Patient No. 4 treatment of major depression and self-rating of pre-menstrual syndrome symptoms", "type": "in vivo, human", "method": "Patient No. 4 was a person who has struggled to overcome a wide variety of psychiatric symptoms, two of which are depression and pre-menstrual syndrome (PMS). After several treatments, it was determined that a combination of paroxetine 20 mg t.i.d. and lithium 300 mg t.i.d. diminished their symptoms of obsessive-compulsive disorder, depression, hypomania and PMS.\nIn FIGS. 6-8 the abbreviations for each symptom on the graphs may be translated as follows:\nPatient No. 4's formal diagnoses were Multiple Personality Disorder, Obsessive-Compulsive Disorder, Major Depression Disorder, Alcoholism (recovering), and Pre-Menstrual Syndrome (PMS).\nSet forth below in Table 1 are the research criteria set forth in the Diagnostic and Statistical Manual of Mental Disorders, Forth edition, published by the American Psychiatric Association for Pre-Menstrual Dysphoric Disorder, or Pre-Menstrual Syndrome.\nThey described a typical menses as follows. They were usually moderately to severely depressed for at least two days during the week before their menses. They had sudden mood swings. One moment they would be crying and the next they would be laughing wildly, or they would have sudden outbursts of anger. They were markedly tense and would fidget constantly. They tired easily and lacked energy. They could barely drag themself out of bed each morning. They craved carbohydrates and often would eat several doughnuts, whole cakes, or boxes of cookies. They slept little, and for two or three nights they would have night sweats that drenched their bed. They also experienced back cramps, bloating and pains in their joints and muscles. They had trouble concentrating and was unable to do life's simplest chores. Their PMS interfered with their ability to function. They lost interest in their favorite hobby, reading."}, "[3]": {"test_system": "depression in the form of dysthymia", "assay": "Patient No. 1 weekly blinded component study with Beck Scale and SCL-90 Scale self-rating", "type": "in vivo, human"}, "[4]": {"test_system": "severe dysthymia", "assay": "Patient No. 3 treatment of severe dysthymia", "type": "in vivo, human", "text": "Patient No. 3 was a divorced person experiencing chronic suicidal depression for about 15 years. For as long as the patient can remember, they have had episodic, mild-to-moderate mood swings. Approximately 15 years ago, their condition worsened and they were depressed almost daily. Their thoughts were slowed down, they felt intensely sad, guilty, worthless, confused, and desperate. Over a period of approximately two years they underwent therapy with a social worker and psychotherapy with a psychiatrist, with little positive results. No pharmaco-therapy was involved in either of these treatments. Initially, Patient No. 3 met with the inventor and identified a childhood source as a partial cause of their depression, low self-esteem and dysfunctional thinking. Although they appreciated the insights gained through the psychoanalysis/psychotherapy with the inventor, their depression persisted unabated. They were rejected by their girlfriend and became frighteningly suicidal. […] Within six months they developed a tolerance to the drug and it was increased to 100 mg per day with no effect. They stopped […]® and started bupropion 100 mg b.i.d and lithium 300 mg t.i.d. Bupropion is an aminoketone antidepressant, and lithium is a metal used to treat bipolar disorder. […] Their condition was desperate and life-threatening."}, "[5]": {"test_system": "alcohol craving", "assay": "Patient No. 1 alcohol craving while taking chromium picolinate alone", "type": "in vivo, human", "text": "During the later stages of the study described above, when Patient No. 1 was taking chromium picolinate alone, they also noticed a change in their ability to tolerate alcohol. Both of their parents were alcoholics so they guarded carefully against this outcome by drinking infrequently.\nDespite this effort, […] often experienced intense cravings for alcohol. Prior to […] treatment with chromium, when […] consumed alcohol, […] could only drink it by gulping it. […] experienced rapid intoxication, unpleasant feelings, and a severe hangover the next day. […] […] also observed that […] could drink in moderation, without having a severe hangover the next day."}, "[6]": {"test_system": "pre-menstrual syndrome (PMS)", "assay": "Patient No. 2 pre-menstrual syndrome observation", "type": "in vivo, human", "details": "chromium 200 μg per day", "method": "They said that they had less carbohydrate craving during the week before, that they were less irritable, that their dysphoria was relieved, and that their usual cramps were non-existent. Thus, an aspect of the present invention includes the treatment of pre-menstrual syndrome (PMS), or dysmenorrhea (problematic and/or painful menses), comprising administering chromium in a preferred dose of 200 μg per day to a patient in need thereof."}, "[7]": {"test_system": "dysthymia", "assay": "Patient No. 2 weekly component study with Beck Scale and SCL-90 Scale", "type": "in vivo, human", "method": "Patient No. 2 was a single person. They are the child of Patient No. 1. They complained of weight gain, hyperphagia, hypersomnia, loss of interest in sex, irritability and an inability to concentrate. They stated that they had been seeing psychotherapists since they were […], but had no success in dealing with their depression. They were also diagnosed as having dysthymia.\nThey had taken sertraline in the amount of 50 mg qd with little help. This dosage was increased to 100 mg qd which proceeded for a period of five weeks. […] They were not as weepy and their outlook was less negative. Their interest in sex was increased. Their appetite remained the same.\nPatient No. 2 then began a similar study as that described above for Patient No. 1. For the first week, they took one vitamin C tablet daily along with 100 mg of sertraline. Their depression appeared to worsen as reflected by their grand total Beck score of +12 and their SCL-90 of +4 as more fully portrayed on the FIG. 4.\nFor Patient No. 2, FIG. 4 presents Patient No. 2's Beck Scale total scores, and FIG. 5 presents a graph of the four subscales of somatization, obsessive-compulsive, depression, and anxiety on the SCL-90 Scale."}, "[8]": {"assay": "Plasma chromium level", "type": "in vivo, human", "method": "Most preferred dosage ranges of chromium are those doses sufficient to deliver from about 4.5 to about 6 μg of chromium per kilogram (kg) of body weight. This dosage range is generally several fold greater than that contained in most commercially available multi-vitamin and mineral preparations. This amount results in a plasma chromium level between 0.9 μg/liter to 2.1 μg/liter. The plasma level will vary depending on the level of exercise, i.e., the more one exercises, the more chromium is required to maintain plasma levels.\nCommercially available tubes for the collection of blood can contain significant amounts of chromium. To avoid contamination, plasma levels of chromium should be determined from blood collected in heparinized or EDTA tubes."}, "[9]": {"test_system": "pre-menstrual syndrome (PMS)", "details": "women with PMS treated with fluoxetine; cited from earlier work"}, "[10]": {"details": "sertraline only, 50 to 150 mg qd"}, "[11]": {"details": "sertraline 100 mg with one vitamin C tablet daily, first week"}}, "note": "Entries after “also recorded” stand apart in the source; their conditions may differ. Structures can show the parent of a compound that is named as a salt.", "data": [{"compound": "[Se]", "note": "[selenium]", "values": [{"measurement": "patient-reported symptoms during week", "setting": "[1]", "result": "felt agitated"}]}, {"compound": "Fc1ccc([C@@H]2CCNC[C@H]2COc2ccc3c(c2)OCO3)cc1", "note": "[paroxetine]", "values": [{"measurement": "change in severity of PMS symptoms", "setting": "[2]; paroxetine", "result": "reduced the severity of their symptoms of PMS from severe to moderately severe"}, {"measurement": "patient rating of PMS", "setting": "[2]; paroxetine 20 mg t.i.d. and lithium 300 mg t.i.d.", "result": "moderate to severe and barely tolerable"}, {"measurement": "depression", "setting": "[2]; resumed lithium 300 mg t.i.d. and paroxetine 40 mg per day", "result": "their depression was refractory"}]}, {"compound": "chromium picolinate", "values": [{"measurement": "patient-reported condition on chromium alone", "setting": "[3]; 400 μg chromium per day (200 μg b.i.d.), sertraline discontinued", "result": "their sleep was much improved; also recorded: felt the best they had felt in a decade"}, {"measurement": "time to improvement after dose increase", "setting": "[3]; crisis period at work, 200 μg chromium t.i.d.", "result": "Within an hour, they noticed immediate improvement"}, {"measurement": "overall response", "setting": "[4]; chromium 200 μg twice daily, 400 μg per day", "result": "marked improvement"}, {"measurement": "signs or symptoms of PMS", "setting": "[2]; chromium 200 μg b.i.d. with paroxetine 20 mg t.i.d. and lithium 300 mg t.i.d.", "result": "completely without signs or symptoms of PMS, except for breast swelling"}, {"measurement": "alcohol cravings", "setting": "[5]", "result": "significantly diminished alcohol cravings"}, {"measurement": "pre-menstrual syndrome / menses symptoms", "setting": "[6]", "result": "their menses was less problematic"}, {"measurement": "potential adverse side effect", "setting": "[1]; 200 μg chromium from chromium picolinate taken late in the day", "result": "their sleep was disturbed"}, {"measurement": "patient-reported symptoms during week", "setting": "[1]", "result": "dramatic, certain and immediate relief of symptoms"}, {"measurement": "total Beck score at the end of the week", "setting": "[1]; one pill of component a day for five days along with sertraline 125 mg qd (chromium 200 μg per day)", "result": 0}, {"measurement": "SCL-90 score", "setting": "[7]; 200 μg chromium per day with sertraline 100 mg per day, second week", "result": "definite improvement"}, {"measurement": "response after resuming treatment", "setting": "[7]; chromium picolinate 200 μg per day", "result": "Within two days they felt better and had no symptoms"}, {"measurement": "patient-reported symptoms during week", "setting": "[7]; component taken along with sertraline 100 mg per day", "result": "their appetite was less"}, {"measurement": "Beck Scale estimated via telephone interview", "setting": "[7]; resumed chromium picolinate 200 μg per day, sertraline continued", "result": "+2"}, {"measurement": "plasma chromium level", "setting": "[8]; Patient No. 1, 400 μg chromium per day as chromium picolinate, sertraline discontinued", "result": 0.9, "unit": "µg/L"}, {"measurement": "plasma chromium", "setting": "[8]; Patient No. 2, four days after resuming chromium picolinate 200 μg per day", "result": 0.8, "unit": "µg/L"}]}, {"compound": "CN[C@H]1CC[C@@H](c2ccc(Cl)c(Cl)c2)c2ccccc21", "note": "[sertraline, reference compound]", "values": [{"measurement": "total Beck score", "setting": "[1]; sertraline 125 mg each day for five days with vitamin C placebo", "result": "+10"}, {"measurement": "symptoms in week prior to study", "setting": "[1]; sertraline 125 mg qd alone", "result": "loss of energy, disturbed sleep, and awaking tired"}, {"measurement": "relief of symptoms of dysthymia", "setting": "[1]; [10]", "result": "provided some relief of the symptoms of dysthymia"}, {"measurement": "side effects", "setting": "[1]; [10]", "result": "made the patient sluggish in their daily activities and made their thinking cloudy, or fuzzy"}, {"measurement": "effect on depression", "setting": "[7]; sertraline 50 mg qd", "result": "little help"}, {"measurement": "effect on depression", "setting": "[7]; sertraline 100 mg qd for five weeks", "result": "still symptomatic of depression, but felt better"}, {"measurement": "SCL-90 score", "setting": "[7]; [11]", "result": "+4"}, {"measurement": "grand total Beck score", "setting": "[7]; [11]", "result": "+12"}]}, {"compound": "CC(NC(C)(C)C)C(=O)c1cccc(Cl)c1", "note": "(centres unmarked) [bupropion]", "values": [{"measurement": "adverse effect leading to discontinuation", "setting": "[4]; bupropion 100 mg b.i.d. with lithium 300 mg t.i.d.", "result": "developed involuntary muscle twitches"}]}, {"compound": "CN(C)CCC=C1c2ccccc2CCc2ccccc21", "note": "[ELAVIL, amitriptyline HCl]", "values": [{"measurement": "effect on depression", "setting": "[4]; 50 mg per day", "result": "helped them sleep"}, {"measurement": "effect on depression", "setting": "[4]; increased to 100 mg per day after tolerance", "result": "no effect"}]}, {"compound": "[Cr]", "note": "[chromium]", "values": [{"measurement": "time to relief of symptoms", "setting": "[4]; chromium picolinate 200 μg b.i.d. with sertraline 100 mg qd", "result": "relief of symptoms within four to five days"}]}, {"compound": "CNCCC(Oc1ccc(C(F)(F)F)cc1)c1ccccc1", "note": "(centres unmarked) [fluoxetine]", "values": [{"measurement": "women suffering from PMS without a positive response", "setting": "[9]", "result": "~40", "unit": "%"}]}]}
